Reference: patent US20230416329A1, “A PEPTIDE WITH DISULFIDE BONDS AND INHIBITORY ACTIVITY AGAINST SERINE PROTEASES, DERIVED HYBRID PEPTIDES THEREOF, AND USES THEREOF” (INSTITUTE OF MATERIA MEDICA , CHINESE ACADEMY OF MEDICAL …, priority 2020, published 2023)

Assays:
DPP-IV = DPP-IV (Homo sapiens, UniProt P27487); experiment: Tolerance of GLP-1 and its analogues to DPP-IV (RP-HPLC remaining peak area); assay type: in vitro ADME; conditions: peptide 25 μM, DPP-IV 0.5 ng/μL, 37° C.
Method: (§1) Mix by centrifugation at 8000 rpm for 30 seconds.
(2) Arrange a certain volume of 0.005 μg/μL DPP-IV solution in another sterile EP.

elastase = elastase (Sus scrofa, UniProt P00772); experiment: in vitro
Method: FIG. 19. […] At different time point, 25 μL aliquots was taken out, and 10% (v/v) TFA was added to terminate the reaction.
as §1
Arrange a certain volume of 0.5 μg/μL elastase solution in another sterile EP. Incubate the EP tubes containing peptides and enzymes at 37° C. for 5 min, and then add 4.5 μL of elastase solution to each EP tube containing peptides and mix well. Start timing and remove 25 μL of reaction solution at 1.5, 3.0, 4.5, 6.0, 9.0, 15.0, 30.0, and 60.0 min later, respectively. Add 3.75 μL of 10% TFA to terminate the reaction and mix well by centrifugation at 8000 rpm for 30 seconds.
Referring to the experimental method in Example 5, in vitro stability of salmon Calcitonin analogs with oral administration activity to the enzymatic hydrolysis by trypsin, chymotrypsin and elastase were performed.
Referring to the experimental method in Example 5, in vitro stability of IL-17A inhibitory peptides towards the enzymatic hydrolysis by trypsin, chymotrypsin and elastase were performed.

[1] = Stability of GLP-1 and its analogues in human serum; conditions: 25% (v/v) human serum
NEP24.11 = NEP24.11 (Homo sapiens, UniProt P08473); experiment: Tolerance of GLP-1 and its analogues to NEP24.11 (RP-HPLC remaining peak area); assay type: in vitro ADME; conditions: after 8 hours
Method: as §1
Arrange a certain volume of 0.04 μg/μL NEP24.11 enzyme solution in another sterile EP.

chymotrypsin = chymotrypsin (Bos taurus, UniProt P00766); experiment: Stability of hybrid peptides (GLP-1, PCSK9, calcitonin, 17A analogues) against chymotrypsin hydrolysis (RP-HPLC remaining peak area)
Method in brief: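 Peptide and 0.05 μg/μL chymotrypsin were preincubated at 37 °C for 5 min, then mixed. Aliquots taken from 1.5 up to 60.0 min were quenched with 10% TFA, and remaining peptide was measured as RP-HPLC peak area.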

[2] = isolated enzyme elastase, pH 8, Remaining peak area (%)/elastase

DPP-IV, sequence (P27487 whole entry, species assumed): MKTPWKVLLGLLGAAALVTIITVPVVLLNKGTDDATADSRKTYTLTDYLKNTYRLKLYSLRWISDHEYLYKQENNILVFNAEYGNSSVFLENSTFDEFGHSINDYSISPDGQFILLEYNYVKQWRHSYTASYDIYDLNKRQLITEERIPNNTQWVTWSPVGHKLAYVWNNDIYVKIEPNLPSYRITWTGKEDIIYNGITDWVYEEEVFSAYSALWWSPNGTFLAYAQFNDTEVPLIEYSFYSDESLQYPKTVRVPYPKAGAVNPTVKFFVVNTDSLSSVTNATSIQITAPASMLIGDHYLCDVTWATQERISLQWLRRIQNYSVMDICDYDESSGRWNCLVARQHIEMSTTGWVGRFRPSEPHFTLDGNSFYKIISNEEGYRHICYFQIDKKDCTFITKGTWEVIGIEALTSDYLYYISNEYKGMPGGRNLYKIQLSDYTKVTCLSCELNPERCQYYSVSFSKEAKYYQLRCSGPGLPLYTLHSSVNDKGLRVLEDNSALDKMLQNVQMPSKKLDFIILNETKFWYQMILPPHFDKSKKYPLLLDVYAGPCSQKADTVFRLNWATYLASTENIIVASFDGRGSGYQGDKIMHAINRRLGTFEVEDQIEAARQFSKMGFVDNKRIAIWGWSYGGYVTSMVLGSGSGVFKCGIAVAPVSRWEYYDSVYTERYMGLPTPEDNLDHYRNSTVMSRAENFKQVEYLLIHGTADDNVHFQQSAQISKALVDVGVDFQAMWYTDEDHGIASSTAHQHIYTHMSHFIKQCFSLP
elastase, sequence (P00772 27-266): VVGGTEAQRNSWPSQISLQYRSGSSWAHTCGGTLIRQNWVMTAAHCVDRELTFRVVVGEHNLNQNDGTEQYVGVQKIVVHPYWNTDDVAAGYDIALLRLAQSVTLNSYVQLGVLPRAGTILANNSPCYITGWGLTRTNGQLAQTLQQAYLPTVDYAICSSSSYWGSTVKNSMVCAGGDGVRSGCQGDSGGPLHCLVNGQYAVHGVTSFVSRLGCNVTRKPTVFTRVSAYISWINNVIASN
NEP24.11, sequence (P08473 whole entry): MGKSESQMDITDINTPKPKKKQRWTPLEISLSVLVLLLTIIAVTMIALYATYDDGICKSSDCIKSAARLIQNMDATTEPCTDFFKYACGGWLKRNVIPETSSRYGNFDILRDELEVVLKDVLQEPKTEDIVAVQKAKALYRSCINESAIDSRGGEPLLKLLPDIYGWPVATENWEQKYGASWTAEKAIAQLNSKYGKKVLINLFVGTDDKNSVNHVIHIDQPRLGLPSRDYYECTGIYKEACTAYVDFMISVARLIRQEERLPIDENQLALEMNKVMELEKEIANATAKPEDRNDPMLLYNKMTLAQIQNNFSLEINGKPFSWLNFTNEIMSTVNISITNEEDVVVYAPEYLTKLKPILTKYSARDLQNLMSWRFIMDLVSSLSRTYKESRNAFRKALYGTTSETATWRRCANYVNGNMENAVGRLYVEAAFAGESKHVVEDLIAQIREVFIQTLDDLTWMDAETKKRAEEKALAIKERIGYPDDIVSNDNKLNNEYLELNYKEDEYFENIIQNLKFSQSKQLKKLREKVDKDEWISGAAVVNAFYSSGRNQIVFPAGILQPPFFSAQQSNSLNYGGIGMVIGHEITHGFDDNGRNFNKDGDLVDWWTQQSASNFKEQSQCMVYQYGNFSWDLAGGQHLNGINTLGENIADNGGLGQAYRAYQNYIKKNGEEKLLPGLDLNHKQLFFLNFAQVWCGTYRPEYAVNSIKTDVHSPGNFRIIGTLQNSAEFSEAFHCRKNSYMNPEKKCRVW

With `CC[C@H](C)[C@H](NC(=O)[C@H](Cc1ccccc1)NC(=O)[C@H](CCC(=O)O)NC(=O)[C@H](CCCCN)NC(=O)[C@H](C)NC(=O)[C@H](C)NC(=O)[C@H](CCC(N)=O)NC(=O)CNC(=O)[C@H](CCC(=O)O)NC(=O)[C@H](CC(C)C)NC(=O)[C@H](Cc1ccc(O)cc1)NC(=O)[C@H](CO)NC(=O)[C@H](CO)NC(=O)[C@@H](NC(=O)[C@H](CC(=O)O)NC(=O)[C@H](CO)NC(=O)[C@@H](NC(=O)[C@H](Cc1ccccc1)NC(=O)[C@@H](NC(=O)CNC(=O)[C@H](CCC(=O)O)NC(=O)[C@H](C)NC(=O)[C@H](Cc1c[nH]cn1)NC(=O)CNC(=O)CNC(=O)[C@@H](NC(=O)[C@@H]1CCCN1C(=O)[C@@H](NC(=O)CNC(=O)CNC(=O)[C@H](Cc1ccc(O)cc1)NC(=O)[C@@H]1CSSC[C@H](NC(=O)[C@@H](N)CC(C)C)C(=O)N[C@@H]([C@@H](C)O)C(=O)N[C@@H](C)C(=O)N[C@@H](CO)C(=O)N[C@@H]([C@@H](C)CC)C(=O)N2CCC[C@H]2C(=O)N2CCC[C@H]2C(=O)N[C@@H](CCC(N)=O)C(=O)N1)[C@@H](C)CC)[C@@H](C)CC)[C@@H](C)O)[C@@H](C)O)C(C)C)C(=O)N[C@@H](C)C(=O)N[C@@H](Cc1c[nH]c2ccccc12)C(=O)N[C@@H](CC(C)C)C(=O)N[C@H](C(=O)N[C@@H](CCCCN)C(=O)NCC(=O)N[C@@H](CCCNC(=N)N)C(=O)NCC(=O)NCC(=O)N[C@@H](CCCCN)C(=O)O)C(C)C` [EC1-D-GLP-1] the “Remaining peak area (%)/DPP-IV” value (DPP-IV; 0.0 h) was 100.0 ± 0.0%, the remaining at 0.5 h, 25 μM (DPP-IV; isolated DPP-IV enzyme in buffer, pH 8, 0.5 h) was 101 ± 1.7% and the remaining at 2 h, 25 μM (DPP-IV; isolated DPP-IV enzyme in buffer, pH 8, 2.0 h) was 99.6 ± 0.6%. It also gave a remaining at 4 h, 25 μM (DPP-IV; isolated DPP-IV enzyme in buffer, pH 8, 4.0 h) of 104.5 ± 0.3%, a remaining at 8 h, 25 μM (DPP-IV; isolated DPP-IV enzyme in buffer, pH 8, 8.0 h) of 97.4 ± 4.2% and a remaining at 12 h, 25 μM (DPP-IV; isolated DPP-IV enzyme in buffer, pH 8, 12.0 h) of 93.6 ± 4.9%. For the same compound, the “Remaining peak area (%)/elastase” value (elastase; isolated enzyme elastase, 1 h, 60 μM, pH 8) was 24.2 ± 0.6%, the remaining at 0.025 h, 60 μM (elastase; [2]) was 86 ± 5.4% and the remaining at 0.05 h, 60 μM (elastase; [2]) was 81.9 ± 3.9%. For the same compound, the remaining at 0.075 h, 60 μM (elastase; [2]) was 80.3 ± 2%, the remaining at 0.1 h, 60 μM (elastase; [2]) was 80.1 ± 3.4% and the remaining at 0.15 h, 60 μM (elastase; [2]) was 76.2 ± 1.6%. The remaining at 0.25 h, 60 μM (elastase; [2]) was 70.4 ± 4.5%, the remaining at 0.5 h, 60 μM (elastase; [2]) was 40.9 ± 1.1% and the remaining at 1 h, 60 μM (elastase; [2]) was about 20%. The “Remaining peak area (%)/human serum” value ([1]; 0.0 h, peptide 0.03 mM, 37° C.) was 100.0 ± 0.0%, the remaining at 0.5 h, 0.03 mM ([1]; human, pH 7) was 72.8 ± 0.8% and the remaining at 2 h, 0.03 mM ([1]; human, pH 7) was 40.8 ± 4.3%. It also gave a remaining at 4 h, 0.03 mM ([1]; human, pH 7) of 23.4 ± 1.9%, a remaining at 8 h, 0.03 mM ([1]; human, pH 7) of 11.7 ± 2% and a remaining at 12 h, 0.03 mM ([1]; human, pH 7) of 3.4 ± 0.4%.
For `CC[C@H](C)[C@H](NC(=O)[C@H](Cc1ccccc1)NC(=O)[C@H](CCC(=O)O)NC(=O)[C@H](CCCCN)NC(=O)[C@H](C)NC(=O)[C@H](C)NC(=O)[C@H](CCC(N)=O)NC(=O)CNC(=O)[C@H](CCC(=O)O)NC(=O)[C@H](CC(C)C)NC(=O)[C@H](Cc1ccc(O)cc1)NC(=O)[C@H](CO)NC(=O)[C@H](CO)NC(=O)[C@@H](NC(=O)[C@H](CC(=O)O)NC(=O)[C@H](CO)NC(=O)[C@@H](NC(=O)[C@H](Cc1ccccc1)NC(=O)[C@@H](NC(=O)CNC(=O)[C@H](CCC(=O)O)NC(=O)[C@H](C)NC(=O)[C@@H](N)Cc1c[nH]cn1)[C@@H](C)O)[C@@H](C)O)C(C)C)C(=O)N[C@@H](C)C(=O)N[C@@H](Cc1c[nH]c2ccccc12)C(=O)N[C@@H](CC(C)C)C(=O)N[C@H](C(=O)N[C@@H](CCCCN)C(=O)NCC(=O)N[C@@H](CCCN=C(N)N)C(=O)NCC(=O)O)C(C)C` [GLP-1 (7-37), reference compound], the “degradation by NEP24.11 (in words)” value (NEP24.11) was “almost completely degraded”, the “stability towards chymotrypsin hydrolysis (in words)” value (chymotrypsin) was “completely degraded” and the “Remaining peak area (%)/elastase” value (elastase; 30.0 min, peptide 60 μM, elastase 10 ng/μL, 37° C.) was “no GLP-1 prototype molecule was detected”.
